In patent US8709420B2 (GlaxoSmithKline Intellectual Property Limited, priority 2010, dated 2014):
Converted amounts (≈) assume the structure as drawn. “And” between values parts separate entries of the source, which are not always exact repeats. Identical values can stand only once.

Columns and labels:
[1] = test system: circulating endothelial progenitor cells (CEPs); assay: CEP/CEC flow cytometry in SK-N-BE(2) xenograft model; type: in vivo, mouse; settings: after one week treatment
Experimental: Approximately 160 μl of mouse blood was collected in K2-EDTA tubes by saphenous vein puncture from animals of the SK-N-BE(2) xenograft model (after one week treatment) and BE(2)-c metastatic model (after one week and four weeks treatment). Blood was immediately stored at 4° C. until analysis. The CEP/CECs were measured by flow cytometry within 48 hrs of blood collection as previously described. CEPs were defined as CD45−, VEGFR-2+, CD117+, and CD13+, while CECs were defined as CD45−, VEGFR-2+, CD117−, and CD13+. The absolute number of CEPs was calculated as the percentage of events collected in CEP enumeration gates multiplied by the total white blood cell (WBC) count.

HIF-1 alpha = assay: Immunohistochemistry of xenograft tumors, HIF-1 alpha; type: in vivo, NOD/SCID mice; settings: NB12 xenograft model
Experimental: Formalin fixed tissues were paraffin embedded and sections cut at 7 um. […] The primary antibodies were anti-HIF-1 alpha (#NB100-131, Novus Biologicals, dilution 1:3000), HIF-2 alpha (#NB100-122, Novus Biologicals, dilution 1:100), Oct-4 (#2890S, Cell Signalling, dilution 1:100), von Willebrand factor (#A0082; DakoCytomation, Glostrup, Denmark). After the primary antibody treatment, all the slides were washed three times with PBS and incubated with broad spectrum poly-horse radish peroxidase (HRP) conjugate […] secondary antibody (87-9663, Invitrogen) for 1 h at room temperature. After washing three times with PBS, slides were stained with diaminobenzidine (DAB) and counterstained with hematoxylin. Microscopic images of six fields of high vascular density were digitally captured for vWF-stained slides, while for HIF-1 alpha, HIF-2 alpha and Oct-4 stained slides, the images of six randomly selected areas were captured. The pixel values for stained areas were quantified using ImageJ software. Tumor angiogenesis was quantified as the number of pixels of regions positive for vWF.

[2] = previously reported; cited from earlier work
KHOS xenograft = assay: KHOS osteosarcoma mouse xenograft model; type: in vivo, NOD/SCID mice
HUVEC = assay: In-vitro cytotoxicity, Alamar Blue cell viability; type: cell-based; settings: Homo sapiens, 72 h treatment, read-out: IC50, reduction in viability of HUVEC cells
[3] = test system: BE(2)-c experimental metastases; assay: BE(2)-c metastatic tumor model; type: in vivo, NOD/SCID mice
Experimental: 1×10^6 BE(2)-c cells were injected into lateral tail veins of NOD/SCID mice to generate ‘experimental’ metastases. […] The treatment was continued until death or end point.
In the metastatic model, the animals' organs (liver, kidney, adrenal, and femur) were removed after the death/sacrifice of animals, and were fixed in 10% formalin and paraffin-embedded. These paraffin-embedded sections were then stained with hematoxylin and eosin and microscopically examined.

[4] = test system: circulating endothelial cells (CECs), CEPs, WBC; assay: Viable CECs, CEPs and WBC in KHOS osteosarcoma model; type: in vivo, NOD/SCID mice; settings: 21 days treatment
Experimental: Procedure: Approximately 160 μl of blood was sampled in heparinized microtubes at 21st day of treatment by saphenous vein puncturing. These blood samples were stored at 4° C. until analysis. CEC/CEP measurement was done within 48 h of blood collection by flow cytometry.

[5] = test system: BE(2)-c neuroblastoma cell line; assay: In-vitro cytotoxicity, Alamar Blue cell viability; type: cell-based; settings: Homo sapiens, topotecan alone, 72 h
Source text: (§1) SK-N-BE(2) (MYCN amplified) and SH-SY5Y (non-MYCN amplified neuroblastoma cell lines) were obtained from American Type Culture Collection (ATCC) (Manassas, Va.); BE(2)-c sub-clone of SK-N-BE(2) was obtained from Dr. Michelle Haber (Children's Cancer Institute for Medical Research, Lowry Cancer Research Centre, Randwick, Australia); Human Umbilical Vein Endothelial Cells (HUVECs) were obtained from Dr. Herman Yeger (The Hospital for Sick Children, Toronto, Ontario, Canada) and Tumor Initiating (TIC) cell lines NB12 and NB88, were obtained from Dr. David Kaplan (The Hospital for Sick Children, Toronto, Ontario, Canada). TICs NB12 and NB88 were isolated from the bone marrow metastases of relapsed high-risk neuroblastoma patients. Neuroblastoma cell lines SK-N-BE(2) and SH-SY5Y were grown in alpha-MEM containing 10% fetal bovine serum and 1% antibiotic mixture in humidified atmosphere at 37° C. with 5% CO2. NB12 and NB 88 were cultured as described previously.
(§2) Cell viability was determined by Alamar Blue assay. Alamar blue (10% of total volume was added to each well three hours prior to fluorometric detection). Fluorometric detection was performed using the SPECTRAmax gemini Spectrophotometer at excitation wavelength of 540 nm and emission wavelength of 590 nm.

[6] = test system: NB12 tumor initiating cell line; assay: In-vitro cytotoxicity, Alamar Blue cell viability; type: cell-based; settings: topotecan alone, 72 h
Source text: as §1, §2

[7] = test system: NB88 tumor initiating cell line; assay: In-vitro cytotoxicity, Alamar Blue cell viability; type: cell-based; settings: topotecan alone, 72 h
Source text: as §1, §2

[8] = test system: KHOS xenograft tumor microvasculature; assay: Microvessel density by von Willebrand factor staining of KHOS xenografts; type: in vivo, NOD/SCID mice; settings: after 28 days treatment
Experimental: Procedure: Formalin fixed tissues were paraffin embedded and sections cut at 7 um. […] The primary antibody was von Willebrand factor (#A0082; DakoCytomation, Glostrup, Denmark). After the primary antibody treatment, the slides were washed three times with PBS and incubated with broad spectrum poly-horse radish peroxidase (HRP) conjugate secondary antibody (87-9663, Invitrogen) for 1 h at room temperature. After washing three times with PBS, slides were stained with diaminobenzidine (DAB) and counterstained with hematoxylin. Microscopic images of six fields of high vascular density were digitally captured. The pixel values for stained areas were quantified using ImageJ software. Tumor angiogenesis was quantified as the number of pixels of regions positive for von Willebrand Factor.

In the case of `Cc1ccc(Nc2nccc(N(C)c3ccc4c(C)n(C)nc4c3)n2)cc1S(N)(=O)=O` [pazopanib, 5-[[4-[(2,3-dimethyl-2H-indazol-6-yl)methylamino]-2-pyrimidinyl]amino]-2-methylbenzenesulfonamide], the “mean values of CEPs compared to control” value [1] is listed as “statistically significant difference”, the HIF-1 alpha expression (HIF-1 alpha) is listed as “increase” and the “optimal plasma concentration of pazopanib effectiveness” value [2] is listed as “≈ 18 μg/ml and 40 μM”.

For `CC[C@@]1(O)C(=O)OCc2c1cc1n(c2=O)Cc2cc3c(CN(C)C)c(O)ccc3nc2-1` [topotecan], the tumor growth rate (KHOS xenograft; 27 days daily oral, LDM topotecan 1.0 mg/kg, combination 1.0 mg/Kg topotecan and 150 mg/Kg pazopanib) was “delayed the tumor growth rate”, the tumor growth rate (KHOS xenograft; Pulse topotecan 15 mg/Kg, 27 days) was “delayed the tumor growth rate” and the “tumor weights, Pulse versus LDM topotecan” value (KHOS xenograft; after 27 days treatment) was “No significant differences”. For the same compound, the IC50 (HUVEC) was 0.00487 µg/mL (≈ 0.0116 µM), the “survival span, TP versus PZ treated group” value ([3]; P<0.05) was “higher” and the “histology of organs: tumors in liver and kidney” value ([3]; at time of death or end point) was “macroscopically detectable tumors in liver and kidney”. For the same compound, the mean survival span ([3]; daily oral gavage from 14 days after i.v. cell injection, TP 1.0 mg/Kg, TP+PZ plus 150 mg/Kg pazopanib) was 52.4 days, the “CEP, significance versus Pulse” value [4] was “* (* P < 0.05)” and the “WBC, significance versus Pulse” value [4] was “* (* P < 0.05)”. The “White Blood Cell (WBC) levels compared to pulse TP” value [4] was “significantly lower”, the “viable CEP levels compared to pulse TP” value [4] was “significantly lower” and the “levels of viable CECs versus control” value ([4]; LDM TP 1.0 mg/kg, TP+PZ) was “significantly reduced”. The “levels of viable CEPs versus control” value ([4]; LDM TP 1.0 mg/kg, TP+PZ) was “significantly reduced”, the “levels of viable CECs versus control” value ([4]; Pulse TP 15 mg/Kg) was “significantly reduced” and the “levels of viable CEPs versus control” value ([4]; Pulse TP 15 mg/Kg) was “significantly reduced”. The “CEC, significance versus Control” value ([4]; Pulse topotecan 15 mg/Kg) was “* (* P < 0.05)”, the “CEP, significance versus Control” value ([4]; Pulse topotecan 15 mg/Kg) was “* (* P < 0.05)” and the “CEC, significance versus Control” value ([4]; TP (LDM 1.0 mg/kg), TP + PZ) was “** (** P < 0.005)”. The “CEP, significance versus Control” value ([4]; TP (LDM 1.0 mg/kg), TP + PZ) was “** (** P < 0.005)”, the “WBC, significance versus Control” value ([4]; TP (LDM 1.0 mg/kg), TP + PZ) was “* (* P < 0.05)” and the IC50 [5] was 0.0456 µg/mL (≈ 0.108 µM). The IC50 [6] was 0.0631 µg/mL (≈ 0.15 µM), the IC50 [7] was 0.0039 µg/mL (≈ 0.00925 µM) and the “microvessel densities versus control” value ([8]; LDM TP, TP+PZ) was “significantly lower”. The “microvessel densities versus control” value ([8]; Pulse TP) was “significantly lower”.
